Here are results for 11 compounds from ChEMBL document CHEMBL1201862, “PubChem BioAssay data set” (2004).

Holding throughout (test): DTP human tumour cell line panel, 48 h
The subject of assay [1] is CAKI-1.
The subject of assay [2] is CCRF-CEM.
Assay [3] relates to HCT-116.
Assay [4] has as its system HOP-62.
Assay [5] concerns K562.
For assay [6], the system named is KM12.
The test system of assay [7] is MDA-MB-231.
Assay [8] relates to NCI-H460.
Assay [9] has as its system OVCAR-3.
Assay [10] has as its system OVCAR-4.
Assay [11] concerns PC-3.
In assay [12] the test system is RXF 393.
Assay [13] deals with SF-539.
For assay [14], the system named is SK-MEL-28.
The test system of assay [15] is SK-MEL-5.
Assay [16] concerns TK-10.
Assay [17] relates to U-251.
Assay [18] has as its system UO-31.
Assay [19] relates to SK-OV-3.
For assay [20], the system named is HL-60.

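Growth conditions: 96-well plates. Treatment: test compound, 48 hours, 5 concentrations. Analysis: linear interpolation between bracketing concentrations; unreached endpoints set to highest concentration. GI50 = concentration required for 50% inhibition of growth.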 Active and inactive are the calls of the source. Cut-off read from the data, not from the text of the source: active = GI50 up to about 1.1 µM and inactive = higher.

For orientation: GI50 means the concentration at which growth is held to half of that of the control. Take `CC(C)(/N=N/C(C)(C)C1=NCCN1)C1=NCCN1`: the GI50 in [1] was > 83.9 µM (inactive); in assay [2], > 100 µM (inactive); in assay [3], > 100 µM (inactive); in assay [4] it was > 100 µM (inactive); in assay [5] it was > 56.5 µM (inactive); in [6] it was > 100 µM (inactive). Besides, the GI50 in assay [7], in assay [8], in assay [9], in assay [10], in [11] and in assay [12] was > 100 µM (inactive) in each case. In addition, the GI50 was > 67.1 µM (inactive) in assay [13]; > 100 µM (inactive) in [14]; > 100 µM (inactive) in [15]; > 56 µM (inactive) in assay [16]; > 100 µM (inactive) in assay [17]; > 74 µM (inactive) in assay [18].

For the compound `N#Cc1nc(CCCCCN2C(=O)c3ccccc3C2=O)oc1N`, the GI50 in assay [1] was > 100 µM (inactive); in [2], 1.91 µM (inactive); in assay [3] it was > 100 µM (inactive); in assay [4], > 100 µM (inactive); in assay [5] it was 17 µM (inactive); in [6] it was > 100 µM (inactive). Also, the GI50 in assay [7], in assay [8], in assay [9], in assay [10], in assay [11] and in assay [12] was > 100 µM (inactive) in each case. Further, the GI50 in assay [13], in assay [14], in [15], in [19], in [16] and in assay [17] was > 100 µM (inactive) in each case. For the same compound, the GI50 in [18] is 94.4 µM (inactive).

In the case of `O=c1c(SSc2coc3cc(F)ccc3c2=O)coc2cc(F)ccc12`, the GI50 in [1] is 20.1 µM (inactive); in [2], 3.58 µM (inactive); in assay [3], 5.14 µM (inactive); in assay [20], 8.59 µM (inactive); in assay [4], 19.8 µM (inactive); in assay [5], 19.9 µM (inactive). The GI50 was 8.95 µM (inactive) in assay [6]; 11.5 µM (inactive) in assay [7]; 4.43 µM (inactive) in assay [8]; 21.6 µM (inactive) in assay [9]; 7.82 µM (inactive) in assay [11]; 32.2 µM (inactive) in assay [12]. Further, the GI50 in [13] was 28.7 µM (inactive); in assay [14] it was 5.58 µM (inactive); in [15], 13.7 µM (inactive); in [16] it was 35.2 µM (inactive); in assay [17], 21.3 µM (inactive); in assay [18], 11.4 µM (inactive).

Regarding `NC1CC(=O)c2ccccc21` (configuration not stated), the GI50 in assay [1], in assay [2], in assay [3], in [4], in assay [5] and in assay [6] was > 100 µM (inactive) each time. Besides, the GI50 in assay [7], in assay [9], in assay [10], in [11], in [12] and in assay [13] was > 100 µM (inactive) in each case. The GI50 in [14], in [15], in assay [19], in [16], in assay [17] and in assay [18] was > 100 µM (inactive) each time.

`C/C=C/[C@H](O[Si](C)(C)C(C)(C)C)[C@@H](O)/C=C/C(=O)OCC`: the GI50 is 18.2 µM (inactive) in assay [1]; 14.3 µM (inactive) in assay [2]; 17.9 µM (inactive) in assay [3]; 17 µM (inactive) in assay [4]; 21.7 µM (inactive) in assay [5]; 18 µM (inactive) in [6]. Besides, the GI50 is 25.8 µM (inactive) in [7]; 15.9 µM (inactive) in [8]; 19.6 µM (inactive) in assay [9]; 11.9 µM (inactive) in assay [10]; 33.3 µM (inactive) in [11]; 21.8 µM (inactive) in assay [12]. For the same compound, the GI50 in [13] is 23.9 µM (inactive); in [14] it was 16.9 µM (inactive); in assay [15] it was 16.3 µM (inactive); in assay [19] it was > 10 µM (inactive); in [16] it was 27.9 µM (inactive); in assay [17], 19.4 µM (inactive). Further, the GI50 in assay [18] is 24 µM (inactive).

Take `COc1ccc2nc(-c3ccccc3)c(=O)[nH]c2c1`: the GI50 in assay [1], in assay [2], in assay [3], in assay [20], in assay [4] and in assay [5] was > 100 µM (inactive) in each case. Further, the GI50 in [7], in assay [8], in [9], in assay [11], in assay [12] and in [13] was > 100 µM (inactive) in each case. The GI50 in assay [14], in assay [15] and in assay [16] was > 100 µM (inactive) in each case.

Regarding `CCCCc1cc2c(cc1O)CCC1C2CC[C@@]2(C)C1CC[C@@H]2O` (some centres not stated), the GI50 in assay [1] is 16.6 µM (inactive); in assay [2], 21.5 µM (inactive); in [3], 14.3 µM (inactive); in assay [4], 28.4 µM (inactive); in [5], 9.38 µM (inactive); in [6], 12.3 µM (inactive). For the same compound, the GI50 in [7] was 29.3 µM (inactive); in assay [8], 21.9 µM (inactive); in assay [9], 13.7 µM (inactive); in assay [10], 20.4 µM (inactive); in assay [11], 12.4 µM (inactive); in [12], 2.89 µM (inactive). For the same compound, the GI50 is 26.2 µM (inactive) in assay [13]; 23 µM (inactive) in assay [14]; 20.8 µM (inactive) in assay [15]; 16.3 µM (inactive) in assay [19]; 18.3 µM (inactive) in assay [16]; 19.4 µM (inactive) in assay [17]. The GI50 in assay [18] was 14.5 µM (inactive).

Consider `C=C(c1ccc2[nH]c(NC(=O)OC)nc2c1)c1cccs1`, for which the GI50 in [1] is < 0.046 µM (active); in assay [3], 0.0675 µM (active); in [4] it was 0.206 µM (active); in assay [5], < 0.0456 µM (active); in assay [7] it was 0.365 µM (active); in [8] it was 0.118 µM (active). For the same compound, the GI50 in assay [9] was 0.0379 µM (active); in assay [11] it was 0.0914 µM (active); in assay [12] it was > 100 µM (inactive); in [13] it was 0.0693 µM (active); in assay [14] it was 3.47 µM (inactive); in assay [15] it was 0.0703 µM (active). For the same compound, the GI50 in assay [19] is 0.135 µM (active); in assay [16], 0.22 µM (active); in assay [17], 0.0791 µM (active); in assay [18], 0.916 µM (active).

As to `CC(C)(O)CCc1ccc(O)c2c(=O)c3c(O)c4c(cc3oc12)O[C@H]1OC=C[C@@]41O` [AUSTOCYSTIN D], the GI50 is < 0.01 µM (active) in assay [1]; 9.79 µM (inactive) in [2]; 0.0199 µM (active) in assay [3]; 0.147 µM (active) in assay [4]; 20 µM (inactive) in assay [5]; < 0.01 µM (active) in assay [6]. The GI50 in assay [7] is 2.26 µM (inactive); in assay [8], 0.0507 µM (active); in assay [9], < 0.01 µM (active); in assay [10] it was < 0.01 µM (active); in assay [11] it was 0.119 µM (active); in assay [12], 0.148 µM (active). For the same compound, the GI50 in assay [13] is 0.514 µM (active); in assay [14], 0.286 µM (active); in [15], 0.0102 µM (active); in assay [19], 0.0125 µM (active); in [16] it was < 0.01 µM (active); in [17], < 0.01 µM (active). Further, the GI50 in assay [18] is < 0.01 µM (active).

With `N#Cc1c(-c2ccc([N+](=O)[O-])cc2)cc(-c2ccc(Nc3ccnc4cc(C(F)(F)F)ccc34)cc2)[nH]c1=O`, the GI50 in assay [1] was > 100 µM (inactive); in assay [2], > 100 µM (inactive); in assay [3] it was 22.2 µM (inactive); in [4], > 100 µM (inactive); in assay [5], > 100 µM (inactive); in [7] it was 16.3 µM (inactive). Besides, the GI50 in [8], in [10], in [11], in assay [12], in assay [13] and in assay [14] was > 100 µM (inactive) each time. Also, the GI50 was > 100 µM (inactive) in assay [15]; > 100 µM (inactive) in assay [19]; 52.2 µM (inactive) in assay [16]; 10 µM (inactive) in assay [17]; > 100 µM (inactive) in [18].

With `Cc1cccc(Cn2c3c(c4cc(O)ccc42)C(=O)c2ccccc2C3=O)c1`, the GI50 in [1] is > 26.5 µM (inactive); in assay [2] it was 28.1 µM (inactive); in [3] it was 3.05 µM (inactive); in assay [4] it was 4.58 µM (inactive); in assay [5], > 100 µM (inactive); in assay [6], 41.2 µM (inactive). Besides, the GI50 in assay [7] was 6.35 µM (inactive); in assay [8], 25.6 µM (inactive); in [9], > 31.6 µM (inactive); in assay [10], 1.88 µM (inactive); in assay [11], 6.27 µM (inactive); in assay [12], 5.6 µM (inactive). Also, the GI50 is 5.7 µM (inactive) in assay [13]; > 39.6 µM (inactive) in [14]; 18.3 µM (inactive) in assay [15]; 3.44 µM (inactive) in assay [19]; 15.5 µM (inactive) in [16]; 8.59 µM (inactive) in [17]. Besides, the GI50 in assay [18] is > 54.2 µM (inactive).
